{
  "source": "patent US20060110767A1",
  "about": "“Genotyping assay to predict cytochrome P4503A5 exression” (priority 2001, published 2006)",
  "key": {"CYP3A7": {"molecular_target": "CYP3A7 (Homo sapiens, UniProt P24462)", "sequence (P24462 whole entry)": "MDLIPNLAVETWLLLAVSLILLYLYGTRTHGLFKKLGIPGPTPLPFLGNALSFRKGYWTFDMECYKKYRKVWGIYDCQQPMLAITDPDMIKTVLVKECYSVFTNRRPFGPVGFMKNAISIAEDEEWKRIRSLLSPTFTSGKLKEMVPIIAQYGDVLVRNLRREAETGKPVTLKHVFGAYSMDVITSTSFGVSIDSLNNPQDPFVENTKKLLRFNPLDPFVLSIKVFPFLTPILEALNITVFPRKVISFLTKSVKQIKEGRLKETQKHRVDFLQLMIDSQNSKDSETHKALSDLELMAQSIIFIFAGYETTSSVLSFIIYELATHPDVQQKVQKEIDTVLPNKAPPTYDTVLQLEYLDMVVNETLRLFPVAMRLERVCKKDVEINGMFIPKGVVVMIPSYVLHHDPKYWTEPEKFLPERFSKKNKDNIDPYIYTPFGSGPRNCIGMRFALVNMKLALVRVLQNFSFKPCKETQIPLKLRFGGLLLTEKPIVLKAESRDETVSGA", "details": "cited from earlier work"}, "CYP3A5 [1]": {"molecular_target": "T1, CYP3A5 (Homo sapiens, UniProt P20815)", "T1 sequence (P20815 whole entry)": "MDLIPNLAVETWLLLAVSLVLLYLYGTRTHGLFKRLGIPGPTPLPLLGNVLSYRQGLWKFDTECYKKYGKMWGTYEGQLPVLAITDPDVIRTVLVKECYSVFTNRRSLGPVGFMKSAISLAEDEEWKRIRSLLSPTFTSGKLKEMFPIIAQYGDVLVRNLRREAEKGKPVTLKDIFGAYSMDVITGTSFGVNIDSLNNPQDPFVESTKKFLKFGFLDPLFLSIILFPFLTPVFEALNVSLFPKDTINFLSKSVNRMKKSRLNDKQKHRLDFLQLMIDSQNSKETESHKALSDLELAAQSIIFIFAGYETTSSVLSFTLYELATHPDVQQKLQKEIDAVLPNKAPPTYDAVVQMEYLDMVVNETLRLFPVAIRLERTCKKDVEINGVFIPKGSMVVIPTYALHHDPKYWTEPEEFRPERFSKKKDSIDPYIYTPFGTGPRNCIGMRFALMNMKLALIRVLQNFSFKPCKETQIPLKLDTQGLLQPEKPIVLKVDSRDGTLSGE", "details": "cited from earlier work"}, "CYP3A4 [2]": {"molecular_target": "T2, CYP3A4 (Homo sapiens, UniProt P08684)", "T2 sequence (P08684 whole entry)": "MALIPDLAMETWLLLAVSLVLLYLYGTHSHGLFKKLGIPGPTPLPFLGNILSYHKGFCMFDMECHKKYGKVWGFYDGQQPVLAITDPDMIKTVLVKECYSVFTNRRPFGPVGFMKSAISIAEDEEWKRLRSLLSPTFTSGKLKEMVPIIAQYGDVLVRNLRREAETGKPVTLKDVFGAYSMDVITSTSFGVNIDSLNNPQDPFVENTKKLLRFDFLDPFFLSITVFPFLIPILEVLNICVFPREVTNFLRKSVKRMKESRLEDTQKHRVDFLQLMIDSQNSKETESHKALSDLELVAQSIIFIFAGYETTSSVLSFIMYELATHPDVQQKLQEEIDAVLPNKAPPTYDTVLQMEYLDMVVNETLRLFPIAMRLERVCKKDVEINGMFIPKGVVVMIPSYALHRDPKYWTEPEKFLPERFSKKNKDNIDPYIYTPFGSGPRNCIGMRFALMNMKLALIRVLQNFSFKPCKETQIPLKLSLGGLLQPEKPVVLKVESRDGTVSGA", "details": "cited from earlier work"}, "CYP3A5 [3]": {"molecular_target": "T1, CYP3A5", "details": "cited from earlier work", "remark": "listed apart in the source"}, "CYP3A": {"tested_on": "CYP3A", "details": "cited from earlier work"}, "CYP4503A enzymes": {"tested_on": "CYP4503A enzymes", "details": "result in words (Wandel et al.); cited from earlier work"}, "CYP4503A5": {"molecular_target": "CYP4503A5 (Homo sapiens, UniProt P20815)", "sequence (P20815 whole entry)": "as the sequence (P20815 whole entry) above", "details": "cited from earlier work"}, "CYP3A5 [4]": {"molecular_target": "T1, CYP3A5", "details": "pH 7.4", "procedure": "(§1) Midazolam, ^15N3-midazolam, 1′-OH MDZ and 4-OH MDZ were provided by Roche Laboratories. All incubations were performed in duplicate in solutions containing 0.1 M potassium phosphate (pH 7.4) and 20 to 100 μg human liver microsomes or 50 to 100 μg intestinal homogenates or 10 pmol of recombinant CYP3A4 or CYP3A5 (Gentest). Midazolam (final concentration, 8 μM) was added to the diluted tissue preparations, and the mixtures were preincubated at 37° C. for 5 min. We added NADPH (final concentration, 1 mM) to initiate the reaction. Incubation of human liver microsomes lasted for 2 min; incubation of recombinant CYP3A and intestinal samples lasted for 4 min. Reactions were terminated by the addition of 1 mL of ice-cold 0.1 M Na2CO3, pH ˜11. We used NCI GC-MS to measure the quantities of extracted 1′-OH MDZ and 4-OH MDZ (ref. 14). Reaction velocities and product ratios are presented as mean±SD. Statistical comparisons of mean data for different genotypes were performed by using a 2-sided, unpaired t test with unequal variances"}, "CYP3A4 [5]": {"molecular_target": "T2, CYP3A4", "details": "pH 7.4", "procedure": "as §1"}, "[6]": {"details": "result in words (Wrighton et al.; Gillam et al.)"}},
  "note": "Read-outs that look alike come from different tables or passages of the source.",
  "data": [
    {"compound": "NS(=O)(=O)Cc1noc2ccccc12", "note": "[Zonisamide]", "values": [
      {"measurement": "CYP isoforms expressed in cells 3A7", "setting": "CYP3A7", "value": "++"},
      {"measurement": "CYP isoforms expressed in cells 3A5", "setting": "CYP3A5 [1]", "value": "+"},
      {"measurement": "CYP isoforms expressed in cells 3A4", "setting": "CYP3A4 [2]", "value": "+++"}
    ]},
    {"compound": "C[C@]12CCC(=O)C=C1CC[C@@H]1[C@@H]2[C@@H](O)C[C@@]2(C)[C@H]1CC[C@]2(O)C(=O)CO", "note": "[Cortisol]", "values": [
      {"measurement": "CYP isoforms expressed in cells 3A7", "setting": "CYP3A7", "value": "−"},
      {"measurement": "CYP isoforms expressed in cells 3A5", "setting": "CYP3A5 [1]", "value": "++"},
      {"measurement": "CYP isoforms expressed in cells 3A4", "setting": "CYP3A4 [2]", "value": "+++"}
    ]},
    {"compound": "C#C[C@]1(O)CC[C@H]2[C@@H]3CCc4cc(O)ccc4[C@H]3CC[C@@]21C", "note": "[17α-ethinyl-estradiol]", "values": [
      {"measurement": "CYP3A5 catalytic activity towards substrate", "setting": "CYP3A5 [3]; [6]", "value": "No CYP3A5 catalytic activity"}
    ]},
    {"compound": "COc1ccc2c(c1)[C@]13CCCC[C@@H]1[C@H](C2)N(C)CC3", "note": "[Dextromethorphan]", "values": [
      {"measurement": "Catalytic activity in human liver microsomes adult (%)", "setting": "CYP3A", "value": 100, "unit": "%"},
      {"measurement": "Catalytic activity in human liver microsomes fetus (%)", "setting": "CYP3A", "value": 30, "unit": "%"}
    ]},
    {"compound": "aflatoxins", "values": [
      {"measurement": "CYP3A5 catalytic activity towards substrate", "setting": "CYP3A5 [3]", "value": "No CYP3A5 catalytic activity"}
    ]},
    {"compound": "CCOC(=O)C1=C(C)NC(C)=C(C(=O)OC)C1c1cccc([N+](=O)[O-])c1", "note": "(centres unmarked) [nitrendipine]", "values": [
      {"measurement": "effect on liver microsomal hydroxylation of midazolam", "setting": "CYP4503A enzymes", "value": "inhibits"}
    ]},
    {"compound": "C[C@]12CCC(=O)CC1CC[C@@H]1[C@@H]2CC[C@]2(C)C(=O)CC[C@@H]12", "note": "(some centres unmarked) [Androstanedione]", "values": [
      {"measurement": "CYP isoforms expressed in cells 3A7", "setting": "CYP3A7", "value": "++"},
      {"measurement": "CYP isoforms expressed in cells 3A5", "setting": "CYP3A5 [1]", "value": "++"},
      {"measurement": "CYP isoforms expressed in cells 3A4", "setting": "CYP3A4 [2]", "value": "+++"}
    ]},
    {"compound": "CCOc1ccc2c3c1O[C@H]1[C@@H](O)C=C[C@H]4[C@@H](C2)N(C)CC[C@@]341", "note": "[Ethylmorphine]", "values": [
      {"measurement": "CYP isoforms expressed in cells 3A5", "setting": "CYP3A5 [1]", "value": "++"},
      {"measurement": "CYP3A5 catalytic activity towards substrate", "setting": "CYP3A5 [3]; [6]", "value": "considerable catalytic activity"},
      {"measurement": "CYP isoforms expressed in cells 3A4", "setting": "CYP3A4 [2]", "value": "+"},
      {"measurement": "Catalytic activity in human liver microsomes adult (%)", "setting": "CYP3A; adult, relative to adult rate = 100%", "value": 100, "unit": "%"},
      {"measurement": "Catalytic activity in human liver microsomes fetus (%)", "setting": "CYP3A; fetus, relative to adult rate = 100%", "value": 100, "unit": "%"}
    ]},
    {"compound": "CC(=O)[C@H]1CC[C@H]2[C@@H]3CCC4=CC(=O)CC[C@]4(C)[C@H]3CC[C@]12C", "note": "[Progesterone]", "values": [
      {"measurement": "CYP isoforms expressed in cells 3A5", "setting": "CYP3A5 [1]; 6β-hydroxylation", "value": "++"},
      {"measurement": "CYP isoforms expressed in cells 3A4", "setting": "CYP3A4 [2]", "value": "+++"}
    ]},
    {"compound": "Cc1ncc2n1-c1ccc(Cl)cc1C(c1ccccc1F)=NC2", "note": "[Midazolam]", "values": [
      {"measurement": "alpha- to 4-hydroxylation of midazolam, CYP4503A5 versus CYP4503A3 or CYP4503A4", "setting": "CYP4503A5", "value": "far greater"},
      {"measurement": "increase of midazolam metabolism with CYP4503A5 expression", "setting": "CYP4503A5", "value": 2.7},
      {"measurement": "CYP isoforms expressed in cells 3A5", "setting": "CYP3A5 [1]", "value": "+++"},
      {"measurement": "formation rate of 1-hydroxy-midazolam for CYP3A5 versus CYP3A4", "setting": "CYP3A5 [3]", "value": "considerably higher"},
      {"measurement": "rate of formation of 4-hydroxy-midazolam with CYP3A4 and CYP3A5", "setting": "CYP3A5 [3]", "value": "similar"},
      {"measurement": "ratio of 1′-OH MDZ to 4-OH MDZ", "setting": "CYP3A5 [4]", "value": 16.1},
      {"measurement": "ratio of 1′-OH MDZ to 4-OH MDZ", "setting": "CYP3A4 [5]", "value": 5.5}
    ]},
    {"compound": "aflatoxin B1", "values": [
      {"measurement": "8,9-epoxidation step (activation step) by CYP3A5", "setting": "CYP3A5 [3]", "value": "efficiently catalyzes"},
      {"measurement": "rate of 3α-hydroxylation (inactivation step) by CYP3A5 relative to CYP3A4", "setting": "CYP3A5 [3]", "value": "approximately 1%"}
    ]},
    {"compound": "NC(=O)N1c2ccccc2C=Cc2ccccc21", "note": "[Carbamazepine]", "values": [
      {"measurement": "CYP isoforms expressed in cells 3A7", "setting": "CYP3A7", "value": "+"},
      {"measurement": "CYP isoforms expressed in cells 3A5", "setting": "CYP3A5 [1]", "value": "++"},
      {"measurement": "CYP isoforms expressed in cells 3A4", "setting": "CYP3A4 [2]", "value": "+++"},
      {"measurement": "Catalytic activity in human liver microsomes adult", "setting": "CYP3A; adult, carbamazepine metabolism, result in words", "value": "Present"},
      {"measurement": "Catalytic activity in human liver microsomes fetus", "setting": "CYP3A; fetus, CBZ-E formation (?), result in words", "value": "CBZ-E"}
    ]},
    {"compound": "C[C@]12CC[C@H]3[C@@H](CCC4=CC(=O)CC[C@@]43C)[C@@H]1CC[C@@H]2O", "note": "[Testosterone]", "values": [
      {"measurement": "CYP isoforms expressed in cells 3A5", "setting": "CYP3A5 [1]", "value": "++"},
      {"measurement": "CYP isoforms expressed in cells 3A4", "setting": "CYP3A4 [2]", "value": "+++"},
      {"measurement": "Catalytic activity in human liver microsomes newborn (%)", "setting": "CYP3A", "value": "30-40%"}
    ]},
    {"compound": "CN1C(=O)CN=C(c2ccccc2)c2cc(Cl)ccc21", "note": "[Diazepam]", "values": [
      {"measurement": "Catalytic activity in human liver microsomes Child (%)", "setting": "CYP3A", "value": "140 (3-12 mo) %"},
      {"measurement": "Catalytic activity in human liver microsomes adult (%)", "setting": "CYP3A", "value": 100, "unit": "%"},
      {"measurement": "Catalytic activity in human liver microsomes fetus (%)", "setting": "CYP3A", "value": "<5", "unit": "%"}
    ]}
  ]
}
